What was measured:
[1] = biological target: T1, Alpha-1A adrenergic receptor (Homo sapiens, UniProt P35348); test: Binding affinity at human cloned Alpha-1A adrenergic receptor in chinese hamster ovary cells by [3H]-prazosin displacement.; format: cell-based, CHO
T1 sequence (P35348 whole entry): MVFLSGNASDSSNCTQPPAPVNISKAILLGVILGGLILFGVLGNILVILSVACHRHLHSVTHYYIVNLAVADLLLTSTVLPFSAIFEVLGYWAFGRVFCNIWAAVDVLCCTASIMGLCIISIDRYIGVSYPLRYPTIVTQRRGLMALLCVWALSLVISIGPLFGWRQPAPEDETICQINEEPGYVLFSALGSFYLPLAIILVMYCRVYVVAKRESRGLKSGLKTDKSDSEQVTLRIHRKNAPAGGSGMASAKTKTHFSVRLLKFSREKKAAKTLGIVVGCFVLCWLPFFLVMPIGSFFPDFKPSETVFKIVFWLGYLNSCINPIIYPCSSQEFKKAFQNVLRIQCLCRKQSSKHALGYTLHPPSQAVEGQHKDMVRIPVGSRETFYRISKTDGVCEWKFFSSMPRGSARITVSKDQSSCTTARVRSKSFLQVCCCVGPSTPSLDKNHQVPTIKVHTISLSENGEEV

[2] = biological target: T2, Alpha-1B adrenergic receptor (Homo sapiens, UniProt P35368); test: Binding affinity at human cloned Alpha-1B adrenergic receptor in chinese hamster ovary cells by [3H]prazosin displacement.; format: cell-based, CHO
T2 sequence (P35368 whole entry): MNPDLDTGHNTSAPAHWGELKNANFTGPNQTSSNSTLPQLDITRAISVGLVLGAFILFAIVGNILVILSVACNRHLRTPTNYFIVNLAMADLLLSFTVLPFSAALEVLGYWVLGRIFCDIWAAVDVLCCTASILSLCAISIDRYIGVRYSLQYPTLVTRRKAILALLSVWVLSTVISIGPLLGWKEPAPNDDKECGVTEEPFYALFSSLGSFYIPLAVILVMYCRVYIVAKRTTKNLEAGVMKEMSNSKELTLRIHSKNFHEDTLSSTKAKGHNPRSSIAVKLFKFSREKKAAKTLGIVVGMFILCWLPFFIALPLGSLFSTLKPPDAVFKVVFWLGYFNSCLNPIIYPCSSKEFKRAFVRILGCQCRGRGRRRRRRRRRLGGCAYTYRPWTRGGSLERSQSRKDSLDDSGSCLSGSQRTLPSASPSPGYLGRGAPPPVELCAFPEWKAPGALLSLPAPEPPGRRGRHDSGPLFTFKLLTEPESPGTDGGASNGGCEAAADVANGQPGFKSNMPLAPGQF

[3] = biological target: T3, Adrenergic receptor alpha-2 (Rattus norvegicus, UniProt P22086+P19328+P22909); test: Antagonism of the clonidine-induced depression of twitch responses of rat isolated prostatic vas deferens.
T3 sequence (P22086 whole entry): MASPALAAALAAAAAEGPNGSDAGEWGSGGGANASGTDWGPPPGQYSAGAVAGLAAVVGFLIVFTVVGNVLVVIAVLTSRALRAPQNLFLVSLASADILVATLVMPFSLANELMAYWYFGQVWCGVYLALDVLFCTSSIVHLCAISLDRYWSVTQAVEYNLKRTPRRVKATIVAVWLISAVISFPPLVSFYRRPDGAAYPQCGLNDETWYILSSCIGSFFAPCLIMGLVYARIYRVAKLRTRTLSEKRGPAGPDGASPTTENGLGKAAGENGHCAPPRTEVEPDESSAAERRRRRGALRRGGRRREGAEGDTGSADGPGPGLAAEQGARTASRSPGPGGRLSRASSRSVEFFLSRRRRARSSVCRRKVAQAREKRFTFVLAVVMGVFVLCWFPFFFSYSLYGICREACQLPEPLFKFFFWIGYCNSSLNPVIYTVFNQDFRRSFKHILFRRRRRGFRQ
T3 sequence (P19328 whole entry): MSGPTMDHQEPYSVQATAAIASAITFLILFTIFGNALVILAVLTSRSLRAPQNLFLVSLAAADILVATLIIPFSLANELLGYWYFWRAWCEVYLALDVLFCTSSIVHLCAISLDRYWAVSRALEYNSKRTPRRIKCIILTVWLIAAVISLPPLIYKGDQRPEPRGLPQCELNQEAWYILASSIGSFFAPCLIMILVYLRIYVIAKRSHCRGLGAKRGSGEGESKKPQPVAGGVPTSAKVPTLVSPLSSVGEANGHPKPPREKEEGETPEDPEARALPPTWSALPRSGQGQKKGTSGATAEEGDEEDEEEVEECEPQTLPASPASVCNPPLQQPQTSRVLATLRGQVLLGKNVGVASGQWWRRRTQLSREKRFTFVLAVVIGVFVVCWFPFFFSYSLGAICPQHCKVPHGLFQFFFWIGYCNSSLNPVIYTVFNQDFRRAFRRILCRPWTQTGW
T3 sequence (P22909 whole entry): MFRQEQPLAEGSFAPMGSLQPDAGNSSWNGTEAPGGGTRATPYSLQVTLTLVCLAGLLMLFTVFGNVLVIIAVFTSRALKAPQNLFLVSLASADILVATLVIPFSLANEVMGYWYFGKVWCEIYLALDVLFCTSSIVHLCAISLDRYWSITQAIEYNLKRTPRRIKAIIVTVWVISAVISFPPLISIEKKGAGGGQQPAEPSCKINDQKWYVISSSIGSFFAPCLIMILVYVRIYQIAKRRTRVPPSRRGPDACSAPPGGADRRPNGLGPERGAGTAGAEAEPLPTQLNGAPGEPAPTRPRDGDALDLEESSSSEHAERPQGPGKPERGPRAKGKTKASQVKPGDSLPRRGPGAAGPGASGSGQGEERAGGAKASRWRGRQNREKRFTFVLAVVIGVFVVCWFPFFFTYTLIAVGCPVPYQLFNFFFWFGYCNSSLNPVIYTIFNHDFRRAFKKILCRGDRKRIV

D(2) dopamine receptor = D(2) dopamine receptor (Rattus norvegicus, UniProt P61169); test: Binding affinity at native Dopamine receptor D2 in rat striatum by [3H]spiperone displacement.; format: tissue-based
[4] = biological target: T4, Alpha-1D adrenergic receptor (Homo sapiens, UniProt P25100); test: Binding affinity at human cloned Alpha-1D adrenergic receptor in chinese hamster ovary cells by [3H]prazosin displacement.; format: cell-based, CHO
T4 sequence (P25100 whole entry): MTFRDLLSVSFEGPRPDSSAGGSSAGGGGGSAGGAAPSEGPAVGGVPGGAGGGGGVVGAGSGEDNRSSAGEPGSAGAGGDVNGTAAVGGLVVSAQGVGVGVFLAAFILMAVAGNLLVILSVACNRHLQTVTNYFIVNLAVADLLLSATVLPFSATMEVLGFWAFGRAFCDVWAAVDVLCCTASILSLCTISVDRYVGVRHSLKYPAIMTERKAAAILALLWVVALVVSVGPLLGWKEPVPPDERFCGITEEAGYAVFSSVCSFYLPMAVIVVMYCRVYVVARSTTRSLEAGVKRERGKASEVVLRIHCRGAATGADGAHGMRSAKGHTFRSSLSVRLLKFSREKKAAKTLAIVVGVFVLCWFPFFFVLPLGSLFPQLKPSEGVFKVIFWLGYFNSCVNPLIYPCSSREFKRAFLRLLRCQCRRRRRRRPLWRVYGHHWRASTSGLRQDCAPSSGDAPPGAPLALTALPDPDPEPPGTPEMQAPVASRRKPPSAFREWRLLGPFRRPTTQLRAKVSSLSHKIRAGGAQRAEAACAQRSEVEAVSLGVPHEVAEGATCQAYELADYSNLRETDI

Chain of D(2) dopamine receptor (P61169 whole entry): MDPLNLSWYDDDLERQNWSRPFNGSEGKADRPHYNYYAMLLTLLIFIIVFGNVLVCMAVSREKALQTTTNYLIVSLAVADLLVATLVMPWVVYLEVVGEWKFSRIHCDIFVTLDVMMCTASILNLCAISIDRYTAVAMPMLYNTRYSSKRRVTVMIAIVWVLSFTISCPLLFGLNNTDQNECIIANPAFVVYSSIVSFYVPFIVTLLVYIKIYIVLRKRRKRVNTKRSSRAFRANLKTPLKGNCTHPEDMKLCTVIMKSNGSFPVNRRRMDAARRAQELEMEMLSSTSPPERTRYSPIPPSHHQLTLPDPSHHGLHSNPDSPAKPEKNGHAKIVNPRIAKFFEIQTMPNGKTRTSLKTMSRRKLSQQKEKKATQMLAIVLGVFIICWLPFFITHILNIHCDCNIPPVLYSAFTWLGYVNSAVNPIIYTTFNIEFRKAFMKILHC

Ki [1]	Ki [2]	pA2 [3]	Ki (D(2) dopamine receptor)	Ki [4]	SMILES
0.417 nM	1.07 nM	< 5	> 10000 nM	0.724 nM	COc1cc2nc(N(C)CCSSCCN(C)C(=O)c3ccco3)nc(N)c2cc1OC
0.166 nM	0.11 nM	6.66		0.195 nM	COc1cc2nc(N(C)CCCCCCN(C)C(=O)c3ccco3)nc(N)c2cc1OC
